The subject of one assay is HCT-8. As to the kind of experiment: Cytotoxicity against human HCT8 cells after 96 hrs by MTT assay. The conditions noted are these: HCT-8, 96 h. (In general: Formazan colour is commonly taken as a measure of viable cells.)
The test system of a further assay is MCF7. Kind of assay: Cytotoxicity against human MCF7 cells after 96 hrs by MTT assay. The conditions noted are these: MCF7, 96 h.
In the next assay the test system is A549. As to the kind of experiment: Cytotoxicity against human A549 cells after 96 hrs by MTT assay. The conditions noted are these: A549, 96 h.
Another assay concerns A2780. Kind of assay: Cytotoxicity against human A2780 cells after 96 hrs by MTT assay. The conditions noted are these: A2780, 96 h.
The test system of a further assay is BGC-823. As to the kind of experiment: Cytotoxicity against human BGC823 cells after 96 hrs by MTT assay. As to conditions: BGC-823, 96 h.
In a further assay the test system is Bel-7402. Kind of assay: Cytotoxicity against human Bel7402 cells after 96 hrs by MTT assay. As to conditions: Bel-7402, 96 h.

Here are results for 14 compounds from ChEMBL document CHEMBL1240448, “Synthesis of N-methyl-bisindolylmaleimide amino acid methyl ester conjugates and cytotoxicity study” (Eur J Med Chem, 2010).

SMILES strings stand for the structures.

With `COC(=O)C(Cc1ccc(O)cc1)NC(=O)Cn1cc(C2=C(c3c[nH]c4ccccc34)C(=O)N(C)C2=O)c2ccccc21` (single isomer, unassigned), the IC50 in the assay on HCT-8 was 93.2 µM; with MCF7, 51.7 µM; in the assay with A549, greater than 100 µM; with A2780, greater than 100 µM; in the assay on BGC-823, greater than 100 µM; with Bel-7402, 28.1 µM.
For `COC(=O)CC(NC(=O)Cn1cc(C2=C(c3c[nH]c4ccccc34)C(=O)N(C)C2=O)c2ccccc21)C(=O)OC` (single isomer, unassigned), the IC50 was found to be 23.4 µM with HCT-8; 25.8 µM with MCF7; 74.2 µM in the assay on A549; 15.4 µM with A2780; 24.6 µM in the assay on BGC-823; 9.36 µM in the assay with Bel-7402.
On to `CC[C@H](C)[C@@H](NC(=O)Cn1cc(C2=C(c3c[nH]c4ccccc34)C(=O)N(C)C2=O)c2ccccc21)C(=O)OC`, for which the IC50 in the assay with HCT-8, with MCF7, in the assay on A549, with A2780, in the assay on BGC-823 and in the assay with Bel-7402 was greater than 100 µM in each case.
For the compound `COC(=O)CCC(NC(=O)Cn1cc(C2=C(c3c[nH]c4ccccc34)C(=O)N(C)C2=O)c2ccccc21)C(=O)OC` (single isomer, unassigned), the IC50 with HCT-8 worked out at 29.2 µM; with MCF7, 23.4 µM; in the assay on A549 it was 73.7 µM; in the assay with A2780, 32.3 µM; with BGC-823, 25 µM; in the assay with Bel-7402 it was 47.4 µM.
As to `COC(=O)C(Cc1ccc(O)c(O)c1)NC(=O)Cn1cc(C2=C(c3c[nH]c4ccccc34)C(=O)N(C)C2=O)c2ccccc21` (single isomer, unassigned), the IC50 in the assay with HCT-8, in the assay on MCF7, with A549, in the assay with A2780, in the assay with BGC-823 and in the assay on Bel-7402 was greater than 100 µM each time.
As for `COC(=O)C(Cc1ccccc1)NC(=O)Cn1cc(C2=C(c3c[nH]c4ccccc34)C(=O)N(C)C2=O)c2ccccc21` (single isomer, unassigned), the IC50 with HCT-8 was 72.4 µM; with MCF7 it was 95.3 µM; in the assay on A549, 88.1 µM; with A2780, 77.9 µM; in the assay with BGC-823, 98 µM; with Bel-7402 it was 96.7 µM.
Turning to `COC(=O)[C@H](NC(=O)Cn1cc(C2=C(c3c[nH]c4ccccc34)C(=O)N(C)C2=O)c2ccccc21)C(C)C`, the IC50 is 25.8 µM in the assay with HCT-8; 16 µM with MCF7; 30.6 µM in the assay with A549; 23.8 µM in the assay on A2780; 48.2 µM in the assay on BGC-823; 4.01 µM in the assay with Bel-7402.
For the compound `COC(=O)C(CC(C)C)NC(=O)Cn1cc(C2=C(c3c[nH]c4ccccc34)C(=O)N(C)C2=O)c2ccccc21` (single isomer, unassigned), the IC50 in the assay on HCT-8 was 37.8 µM; in the assay on MCF7, 37.4 µM; in the assay with A549, greater than 100 µM; in the assay on A2780 it was 38.5 µM; in the assay with BGC-823, 45.5 µM; in the assay with Bel-7402, 42.4 µM.
For the compound `COC(=O)C(Cc1c[nH]c2ccccc12)NC(=O)Cn1cc(C2=C(c3c[nH]c4ccccc34)C(=O)N(C)C2=O)c2ccccc21` (single isomer, unassigned), the IC50 with HCT-8 turned out to be 9.19 µM; in the assay with MCF7, 4.83 µM; with A549, 45.2 µM; in the assay with A2780, 5.39 µM; in the assay with BGC-823, 3.73 µM; in the assay on Bel-7402, 4.11 µM.
`COC(=O)[C@@H](CO)NC(=O)Cn1cc(C2=C(c3c[nH]c4ccccc34)C(=O)N(C)C2=O)c2ccccc21`: the IC50 worked out at 22.9 µM in the assay on HCT-8; 24.5 µM in the assay with MCF7; 37.9 µM with A549; 23.2 µM in the assay with A2780; 28.9 µM with BGC-823; 67.2 µM with Bel-7402.
As to `COC(=O)[C@H](NC(=O)Cn1cc(C2=C(c3c[nH]c4ccccc34)C(=O)N(C)C2=O)c2ccccc21)[C@@H](C)O` (single isomer, unassigned), the IC50 with HCT-8 was 23.4 µM; with MCF7 it was 22.9 µM; in the assay on A549, 25.7 µM; with A2780, 21.4 µM; in the assay with BGC-823, 23.3 µM; in the assay on Bel-7402, greater than 100 µM.
Regarding `COC(=O)CNC(=O)Cn1cc(C2=C(c3c[nH]c4ccccc34)C(=O)N(C)C2=O)c2ccccc21`, the IC50 in the assay on HCT-8 was determined as 22.9 µM; in the assay with MCF7, 36 µM; with A549, 78.3 µM; with A2780, 33.9 µM; with BGC-823, 88.4 µM; with Bel-7402 it was 28.4 µM.
For `COC(=O)CCNC(=O)Cn1cc(C2=C(c3c[nH]c4ccccc34)C(=O)N(C)C2=O)c2ccccc21`, the IC50 in the assay with HCT-8 stood at 50.9 µM; in the assay on MCF7, 47.8 µM; with A549, 37.6 µM; with A2780, 44.5 µM; with BGC-823, 44.9 µM; in the assay on Bel-7402, 28.4 µM.
`COC(=O)C(C)NC(=O)Cn1cc(C2=C(c3c[nH]c4ccccc34)C(=O)N(C)C2=O)c2ccccc21` (single isomer, unassigned): the IC50 was determined as 21.4 µM with HCT-8; 15.3 µM with MCF7; 30.5 µM with A549; 15.8 µM with A2780; 60.4 µM with BGC-823; 9.34 µM with Bel-7402.

What is called IC50 is the point on the concentration scale where inhibition reaches its midpoint.
